Test results: ChEMBL document CHEMBL3885881, “DrugMatrix”

Species on record: Rattus norvegicus
Assay: DrugMatrix - Regimen: Daily Repeat
Type: toxicity, organism-based, Sprague-Dawley
Set-up: regimen Daily Repeat, gender Male, age 6-8 weeks
Settings: in vivo, po, 600 mg/kg, route oral GAVAGE, dose level High
[1] = 72 h, tissue Plasma, time 3 day, vehicle 100 % WATER
[2] = 120 h, tissue Blood, time 5 day, […]
[3] = 120 h, tissue Blood, time 5 day, vehicle 100 % WATER
[4] = 120 h, tissue Plasma, time 5 day, […]
[5] = 120 h, tissue Plasma, time 5 day, vehicle 100 % WATER

ClC(Cl)Cl [CHLOROFORM]
SODIUM [1]: 144.7 MEQ/L
TOTAL BILIRUBIN [1]: 0.13 mg/dL
TOTAL PROTEIN [1]: 6.6 G/DL
URIC ACID [1]: 0.7 mg/dL
ABSOLUTE LYMPHOCYTE [2]: 11359.33 CELLS/uL
ABSOLUTE MONOCYTE [2]: 227.33 CELLS/uL
ABSOLUTE SEGMENTED NEUTROPHIL [2]: 6880 CELLS/uL
ERYTHROCYTE COUNT [2]: 7.17 x10E6/uL
HEMATOCRIT [2]: 42.1%
HEMOGLOBIN [2]: 15.6 G/DL
LEUKOCYTE COUNT [2]: 18.47 x10E3/uL
LYMPHOCYTE [2]: 73%
MEAN CORPUSCULAR HEMOGLOBIN [2]: 21.73 pg
MEAN CORPUSCULAR HEMOGLOBIN CONCENTRATION [2]: 37.07 G/DL
MEAN CORPUSCULAR VOLUME [2]: 58.7 fL
MONOCYTE [2]: 2%
NEUTROPHIL [2]: 25%
PLATELET COUNT [2]: 1040.67 x10E3/uL
ABSOLUTE BASOPHIL [3]: 0 CELLS/uL
ABSOLUTE EOSINOPHIL [3]: 0 CELLS/uL
ABSOLUTE LYMPHOCYTE [3]: 9175.5 CELLS/uL
ABSOLUTE MONOCYTE [3]: 105.5 CELLS/uL
ABSOLUTE SEGMENTED NEUTROPHIL [3]: 1269 CELLS/uL
BASOPHIL [3]: 0%
EOSINOPHIL [3]: 0%
ERYTHROCYTE COUNT [3]: 6.48 x10E6/uL
HEMATOCRIT [3]: 39.2%
HEMOGLOBIN [3]: 15.15 G/DL
LEUKOCYTE COUNT [3]: 10.55 x10E3/uL
LYMPHOCYTE [3]: 88%
MEAN CORPUSCULAR HEMOGLOBIN [3]: 23.4 pg
MEAN CORPUSCULAR HEMOGLOBIN CONCENTRATION [3]: 38.7 G/DL
MEAN CORPUSCULAR VOLUME [3]: 60.5 fL
MONOCYTE [3]: 1%
NEUTROPHIL [3]: 11%
NUCLEATED RED BLOOD CELLS [3]: 0 /100WBC
PLATELET COUNT [3]: 959 x10E3/uL
ALANINE AMINOTRANSFERASE [4]: 212 u/L
ALBUMIN [4]: 4.1 G/DL
ALKALINE PHOSPHATASE [4]: 626 u/L
ASPARTATE AMINOTRANSFERASE [4]: 299.67 u/L
BLOOD UREA NITROGEN [4]: 49.67 mg/dL
CARBON DIOXIDE [4]: 19.67 mmol/L
CHLORIDE [4]: 110.67 MEQ/L
CHOLESTEROL [4]: 110.33 mg/dL
CREATINE PHOSPHOKINASE [4]: 744 u/L
CREATININE [4]: 0.83 mg/dL
GLUCOSE [4]: 119.33 mg/dL
LACTATE DEHYDROGENASE [4]: 376 u/L
PHOSPHORUS [4]: 13.27 mg/dL
POTASSIUM [4]: 9.12 MEQ/L
SODIUM [4]: 144.83 MEQ/L
TOTAL BILIRUBIN [4]: 0.63 mg/dL
TOTAL PROTEIN [4]: 5.77 G/DL
URIC ACID [4]: 1.3 mg/dL
ALANINE AMINOTRANSFERASE [5]: 46.5 u/L
ALBUMIN [5]: 4.05 G/DL
ALKALINE PHOSPHATASE [5]: 305.5 u/L
ASPARTATE AMINOTRANSFERASE [5]: 71 u/L
BLOOD UREA NITROGEN [5]: 15 mg/dL
CARBON DIOXIDE [5]: 29 mmol/L
CHLORIDE [5]: 102.5 MEQ/L
CHOLESTEROL [5]: 69 mg/dL
CREATINE PHOSPHOKINASE [5]: 475.5 u/L
CREATININE [5]: 0.21 mg/dL
GLUCOSE [5]: 150.5 mg/dL
LACTATE DEHYDROGENASE [5]: 93 u/L
LIPASE [5]: 11 u/L
PHOSPHORUS [5]: 11.45 mg/dL
POTASSIUM [5]: 5.24 MEQ/L
SODIUM [5]: 146.9 MEQ/L
TOTAL BILIRUBIN [5]: 0.1 mg/dL
TOTAL PROTEIN [5]: 6.05 G/DL
URIC ACID [5]: 0.95 mg/dL
